Test results: paper PMC8795149, “Characterization of a novel non-steroidal glucocorticoid receptor agonist optimized for topical treatment” (Scientific Reports, 2022)

What was measured:
[1] = biological target: T1, mineralocorticoid receptor (MR) (Homo sapiens, UniProt P08235); assay: MR agonist assay, MR-luciferase reporter cells; assay type: cell-based; conditions: 24 h incubation; 'in contrast' = unlike LEO 134310, which gave no significant activation
T1 sequence (P08235 1-984): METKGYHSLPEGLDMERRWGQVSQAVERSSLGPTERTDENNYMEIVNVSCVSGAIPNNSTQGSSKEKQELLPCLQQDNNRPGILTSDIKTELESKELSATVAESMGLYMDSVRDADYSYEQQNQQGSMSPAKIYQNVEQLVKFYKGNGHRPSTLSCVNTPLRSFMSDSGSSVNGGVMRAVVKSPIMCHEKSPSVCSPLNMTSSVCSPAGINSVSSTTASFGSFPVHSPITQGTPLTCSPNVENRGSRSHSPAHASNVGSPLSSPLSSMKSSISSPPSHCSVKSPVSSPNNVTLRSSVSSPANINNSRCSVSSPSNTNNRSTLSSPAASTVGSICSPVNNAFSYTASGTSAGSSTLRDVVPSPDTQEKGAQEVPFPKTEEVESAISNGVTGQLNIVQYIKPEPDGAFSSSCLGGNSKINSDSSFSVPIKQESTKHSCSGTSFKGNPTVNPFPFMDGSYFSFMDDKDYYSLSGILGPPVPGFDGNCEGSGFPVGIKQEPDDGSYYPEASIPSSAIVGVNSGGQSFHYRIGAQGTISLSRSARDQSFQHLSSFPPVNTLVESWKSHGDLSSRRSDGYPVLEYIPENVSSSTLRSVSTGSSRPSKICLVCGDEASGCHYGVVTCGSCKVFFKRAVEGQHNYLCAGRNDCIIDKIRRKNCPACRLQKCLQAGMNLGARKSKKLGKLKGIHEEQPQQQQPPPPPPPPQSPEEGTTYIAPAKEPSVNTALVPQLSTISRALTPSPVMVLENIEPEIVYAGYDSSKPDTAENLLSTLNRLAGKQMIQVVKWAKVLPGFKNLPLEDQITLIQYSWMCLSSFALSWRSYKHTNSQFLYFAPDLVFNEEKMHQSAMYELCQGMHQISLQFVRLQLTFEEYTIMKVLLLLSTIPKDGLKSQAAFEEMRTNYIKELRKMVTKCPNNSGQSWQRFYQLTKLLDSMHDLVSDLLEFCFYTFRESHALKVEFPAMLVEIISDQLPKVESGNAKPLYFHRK
Protocol: Assays were performed at Indigo Biosciences according to standard protocols. In brief, MR-luciferase reporter cells were incubated with medium containing charcoal-stripped fetal bovine serum and incubated with test and reference compounds for 24 h before measuring luminescence. Data were fitted by the means of four parameter logistic regression.

[2] = system: TXNIP mRNA; assay: Human skin explant, TXNIP gene expression; assay type: cell-based; conditions: human skin explants, topical, 24 h; for TXNIP Relative ED50: weighted geometric mean ± SD
Protocol: NativeSkin models (NS002) were purchased from Genoskin, France. Human skin samples from abdominal reduction surgery were obtained by Genoskin from donors upon written informed consent. Full ethical approval for the study protocol was obtained from the French ethical research committee (Comité de Protection des Personnes), and authorization was given by the French Ministry of Research. The study was conducted according to the Declaration of Helsinki. 8 mm punch biopsies were excised and embedded in a fibrin-based matrix in transwells and a silicone ring was firmly attached to the surface covering the outer edge of the skin biopsy to prevent lateral diffusion of topically applied formulations. Skin models were cultured in a defined hydrocortisone- and serum-free medium provided by Genoskin.
LEO 134310 and reference glucocorticoids were dissolved in propylene carbonate and tested at 4 concentrations in five- or tenfold titrations. Compounds were applied in duplicates or triplicates on the skin surface (0.5 cm^2) in a volume of 2 µL and incubated for 24 h. Vehicle and untreated samples were included for basal level of expression.
RNA was extracted and qPCR was performed using TaqMan gene expression assays (FKBP5-Hs01561006_m1, TSC22D3 (GILZ)-Hs00608272_m1, TXNIP-Hs01006900_g1, ACTB-Hs99999903_m1, PPIA-Hs99999904_m1, GAPDH-Hs99999905_m1). Gene expression of FKBP5,TSC22D3 (GILZ), and TXNIP was normalized to the geometric mean of the reference genes ACTB, PPIA and GAPDH.
Doses were expressed as compound (API) concentrations (µg/mL) in the applied formulations. Relative upregulation of FKBP5 was estimated as − fold to vehicle treated control. Effective doses (Emax and ED50) were determined from a sigmoid Emax model in Phoenix64 version 8.0, Pharsight, Certara. Mean values and standard deviation of Emax and ED50 were calculated by weighing individual experiments based on the intra- and inter-experiment variability.

[3] = system: TPA-induced skin inflammation; assay: TPA-induced skin inflammation in mice, efficacy; assay type: in vivo; conditions: TPA mouse model; for Ear biopsy weight ID50 (API concentration in formulation) / Ear biopsy weight Imax: topical, CV (%) in brackets
Protocol: Female Balb/c mice of 7 to 8 weeks old were obtained from Charles River, Germany and acclimatized for at least 1 week. Skin inflammation was induced by repeated topical application of TPA (20 μL of 0.01% TPA in acetone; 10 μL to each side of ear) on days 1, 3, 5, 8 and 10.
Treatments were performed by topical application of either vehicle (90% acetone, 10% transcutol), Treatments were applied twice daily on days 8, 9, 10, and once on day 11 (20–10 μL to each side of ear) with at least 5 h between the first and second treatment. TPA challenge on days 8 and 10 was performed at least 1 h after the first treatment. On day 11, animals were sacrificed 2 h after the last dosing. Blood was sampled by cardiac puncture from animals anaesthetized with isoflurane. Thereafter, ear biopsies were taken with a biopsy punch (8 mm diameter), weighed and stored at – 80 °C. Plasma osteocalcin levels were analyzed by EIA (rat-MID, IDS, UK). Effective inhibitory doses (ID50) were determined from a sigmoid I(max) model in Phoenix64, Pharsight, Certara. Therapeutic Index (TI) was calculated either as ID50 for spleen weight reduction or ID50 for blood osteocalcin concentrations, divided by ID50 for ear weight reduction.
RNA was extracted from biopsies and qPCR was performed using TaqMan gene expression assays (Fkbp5-Mm00487406_m1, Tsc22d3 (Gilz)-Mm00726417_s1, Actb-Mm00607939_s1, Pgk1-Mm00435617_m1, Tbp-Mm00446971_m1, Ubc-Mm02525934_g1). Gene expression of Fkbp5 and Tsc22d3 (Gilz) was normalized to the geometric mean of the reference genes Actb, Pgk1, Tbp and Ubc.

C[C@H](NC(=O)[C@H]1CCCO1)[C@H](Oc1ccc(C(=O)O[C@H]2CCCN(C(=O)[C@H]3COC(=O)C3)C2)cc1)c1ccc(C2CC2)cc1 [LEO 134310]
Activation of MR (luciferase activity) [1]: No significant activation of MR | TXNIP Emax [2]: 19 ± 7.3^NS fold to control | TXNIP Relative ED50 [2]: 110 ± 300^NS µg/mL | Less potent than BMV, reduction in ear biopsy weight [3]: ~100 fold | Less potent than CP, reduction in ear biopsy weight [3]: approximately 300 fold | Ear biopsy weight ID50 (API concentration in formulation) [3]: 500 (250) µg/mL | Ear biopsy weight Imax [3]: 64 (39) %

CCC(=O)O[C@]1(C(=O)CCl)[C@@H](C)C[C@H]2[C@@H]3CCC4=CC(=O)C=C[C@]4(C)[C@@]3(F)[C@@H](O)C[C@@]21C [CP, Clobetasol Propionate]
Activation of MR (luciferase activity) [1]: in contrast | TXNIP Emax [2]: 19 ± 8.5^NS fold to control | TXNIP Relative ED50 [2]: 1.3 ± 0.33 µg/mL | Ear biopsy weight ID50 (API concentration in formulation) [3]: 1.5 (69) µg/mL | Ear biopsy weight Imax [3]: 67 (14) %

CCCCC(=O)O[C@]1(C(=O)CO)[C@@H](C)C[C@H]2[C@@H]3CCC4=CC(=O)C=C[C@]4(C)[C@@]3(F)[C@@H](O)C[C@@]21C [BMV, Betamethasone Valerate]
Activation of MR (luciferase activity) [1]: in contrast | TXNIP Emax [2]: 17 ± 17 fold to control | TXNIP Relative ED50 [2]: 52 ± 15 µg/mL | Ear biopsy weight ID50 (API concentration in formulation) [3]: 5.1 (73) µg/mL | Ear biopsy weight Imax [3]: 69 (17) %
